Experimental data published in patent US7453009B2, “Hydroxybiphenyl carboxylic acids and derivatives, method for producing the same and their use” (Sanofi-Aventis Deutschland GmbH, priority 2004, dated 2008).

Molecular target: T1, recombinant hPTP1B (phosphotyrosine phosphatase 1B) (Homo sapiens, UniProt P18031)
T1 construct: but without the carboxy-terminal hydrophobic region (corresponding to 1-299 aa); made in house; host or cells: Sf9 insect cells (baculovirus, Bac-to-Bac, pFASTBAC)
T1 sequence (P18031 1-299): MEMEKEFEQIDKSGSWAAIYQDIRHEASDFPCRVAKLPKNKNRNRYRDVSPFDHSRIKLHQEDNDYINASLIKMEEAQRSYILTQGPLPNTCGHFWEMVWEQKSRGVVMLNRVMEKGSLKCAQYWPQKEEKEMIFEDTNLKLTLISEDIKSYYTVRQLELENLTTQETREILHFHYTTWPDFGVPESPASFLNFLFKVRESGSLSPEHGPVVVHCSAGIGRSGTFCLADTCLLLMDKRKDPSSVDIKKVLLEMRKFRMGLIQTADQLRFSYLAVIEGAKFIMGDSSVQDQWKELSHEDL
Test: Enzymatic test for inhibition of a phosphatase (phosphopeptide dephosphorylation / p-nitrophenyl phosphate cleavage)
Format: biochemical
Conditions: Table 3 Biological activity; inhibition of PTP1B; table does not say which substrate format (A phosphopeptide or B pNPP)
Experimental: Enzymatic Test Systems for Detecting Inhibition of a Phosphatase
The compounds of the formula I were tested for their phosphatase-inhibiting effect in an in vitro assay. The enzyme preparation and the performance of the assay was carried out as follows.
A) Cell Culture: • Sf9 cells (=Spodoptera frugiperda cell type; obtainable from invitrogen) are cultured in Grace's supplemented medium (Gibco-BRL) with 10% heat-inactivated fetal calf serum (Gibco-BRL) in spinner flasks at 28° C. in accordance with the protocol of Summers and Smith (A Manual for Methods for Baculovirus Vectors and Insect Culture Procedures [Bulletin No. 15555]. Texas A & M University, Texas Agricultural Experiment Station, College Station, Tex., 1987). • Construction of recombinant Baculovirus transfer vectors: cDNA coding for the regulatory and catalytic domains of human PTP1B, but without the carboxy-terminal hydrophobic region (corresponding to 1-299 aa) was obtained by polymerase chain reaction via primers with attached cloning sites and suitable cDNA templates (obtainable for example from invitrogen) and then cloned into baculovirus expression vectors (Amersham Pharmacia Biotech.). The recombinant baculoviruses were prepared with the aid of the Bac-to-Bac baculovirus expression system (obtainable from Gibco-BRL). The gene was cloned into the pFASTBAC donor plasmid (obtainable from Life Technologies). The resulting plasmid was transformed into competent DH10BAC Escherichia coli cells (obtainable from Life Technologies). After transposition and antibiotic selection, the recombinant plasmid DNA was isolated from selected E. coli colonies and then used for the transfection of Sf9 insect cells. The virus particle in the supernatant medium was amplified three times up to a viral stock volume of 500 ml.
B) Production of Recombinant Protein: • Baculovirus infection of a 500 ml spinner culture of Sf9 cells was essentially carried out as described by Summers and Smith (see above). Sf9 cells at a density of 1-3×10^6 cells/ml were pelleted by centrifugation at 300 g for 5 min, the supernatant was removed, and the cells were resuspended in a density of 1×10^7 cells/ml in a suitable recombinant viral stock (MOI 10). After careful shaking at room temperature for 1.5 h, fresh medium was added in order to achieve a cell density of 1×10^6 cells/ml. The cells were then cultured in the suspension at 28° C. for suitable periods after postinfection.
C) Cellular Fractionation and Complete Cell Extracts of Infected Sf9 Cells: • After the postinfection, aliquots were subjected to an analysis of protein expression by SDS-PAGE and Western blot analysis. The cellular fractionation was carried out as described (Cromlish, W. and Kennedy, B. Biochem. Pharmacol. 52: 1777-1785, 1996). Complete cell extracts were obtained from 1 ml aliquots of the infected Sf9 cells after certain times postinfection. The pelleted cells (300×g, 5 min) were washed once in phosphate-buffered saline (4° C.), resuspended in 50 μl of water and disrupted by repeated freezing/thawing. Protein concentrations were determined with the aid of the Bradford method and bovine serum albumin as standard.
A) Dephosphorylation of a Phosphopeptide: • This assay is based on the release of phosphate from a consensus substrate peptide which is detected in the nanomolar concentration range by the malachite green/ammonium molybdate method (Lanzetta, P. A., Alvarez, L. J., Reinach, P. S., Candia, O. A. Anal Biochem. 100: 95-97, 1979) adapted for the microtiter plate format. The dodecatrisphosphopeptide TRDIYETDYYRK (Biotrend, Cologne) corresponds to amino acids 1142-1153 of the catalytic domain of the insulin receptor and is (auto)phosphorylated on tyrosine residues 1146, 1150 and 1151. […]

Compound | IC50 [nM]
O=C(O)c1cc(-c2ccc(CN(CC3CC3)C(=O)c3ccc4c(c3)OCO4)cc2)ccc1O [Example 14, 4′-{[(Benzo[1,3]dioxole-5-carbonyl)cyclopropylmethylamino]methyl}-4-hydroxybiphenyl-3-carboxylic acid] | 1800
CCCCC(=O)N(Cc1ccc(-c2ccc(O)c(C(=O)O)c2)cc1)CC1CC1 [Example 8, 4′-[(Cyclopropylmethylpentanoylamino)methyl]-4-hydroxybiphenyl-3-carboxylic acid] | 1900
COc1cccc(C(=O)N(Cc2ccc(C)cc2)Cc2ccc(-c3ccc(O)c(C(=O)O)c3)cc2)c1 [Example 13, 4-Hydroxy-4′-{[(3-methoxybenzoyl)-(4-methylbenzyl)amino]methyl}-biphenyl-3-carboxylic acid] | 1700
O=C(O)c1cc(-c2ccc(CN(CC3CC3)C(=O)C3CCCCC3)cc2)ccc1O [Example 5, 4′-[(Cyclohexanecarbonylcyclopropylmethylamino)methyl]-4-hydroxybiphenyl-3-carboxylic acid] | 1600
O=C(O)c1cc(-c2ccc(CN(C(=O)c3ccc4c(c3)OCO4)C3CCCC3)cc2)ccc1O [Example 20, 4′-{[(Benzo[1,3]dioxole-5-carbonyl)cyclopentylamino]methyl}-4-hydroxy-biphenyl-3-carboxylic acid] | 1800
O=C(O)c1cc(-c2ccc(CN(Cc3ccc(F)cc3)C(=O)c3ccc4c(c3)OCO4)cc2)ccc1O [Example 16, 4′-{[(Benzo[1,3]dioxole-5-carbonyl)-(4-fluorobenzyl)amino]methyl}-4-hydroxy-biphenyl-3-carboxylic acid] | 1900
O=C(O)c1cc(-c2ccc(CN(Cc3ccccc3)C(=O)c3ccc4c(c3)OCO4)cc2)ccc1O [Example 3, 4′-{[(Benzo[1,3]dioxole-5-carbonyl)benzylamino]methyl}-4-hydroxybiphenyl-3-carboxylic acid] | 1500
COc1cccc(C(=O)N(Cc2ccccc2)Cc2ccc(-c3ccc(O)c(C(=O)O)c3)cc2)c1 [Example 12, 4′-{[Benzyl-(3-methoxybenzoyl)amino]methyl}-4-hydroxybiphenyl-3-carboxylic acid] | 1600
Cc1ccc(CN(Cc2ccc(-c3ccc(O)c(C(=O)O)c3)cc2)C(=O)C2CCCCC2)cc1 [Example 10, 4′-{[Cyclohexanecarbonyl-(4-methylbenzyl)amino]methyl}-4-hydroxybiphenyl-3-carboxylic acid] | 1600
O=C(O)c1cc(-c2ccc(CN(CCc3ccccc3)C(=O)c3ccc4c(c3)OCO4)cc2)ccc1O [Example 11, 4′-{[(Benzo[1,3]dioxole-5-carbonyl)phenethylamino]methyl}-4-hydroxybiphenyl-3-carboxylic acid] | 1600
COc1cccc(C(=O)N(Cc2ccc(F)cc2)Cc2ccc(-c3ccc(O)c(C(=O)O)c3)cc2)c1 [Example 17, 4′-{[(4-Fluorobenzyl)-(3-methoxybenzoyl)amino]methyl}-4-hydroxybiphenyl-3-carboxylic acid] | 1600

Now from value to molecule:

IC50 [nM] | Compound
1000 | Cc1ccc(CN(Cc2ccc(-c3ccc(O)c(C(=O)O)c3)cc2)C(=O)c2ccc(Br)cc2)cc1 [Example 7, 4′-{[(4-Bromobenzoyl)-(4-methylbenzyl)amino]methyl}-4-hydroxybiphenyl-3-carboxylic acid]
1200 | COc1ccc(CN(Cc2ccc(-c3ccc(O)c(C(=O)O)c3)cc2)C(=O)c2ccc3c(c2)OCO3)cc1 [Example 2, 4′-{[(Benzo[1,3]dioxole-5-carbonyl)-(4-methoxybenzyl)amino]-methyl}-4-hydroxybiphenyl-3-carboxylic acid]
1200 | COc1ccccc1CN(Cc1ccc(-c2ccc(O)c(C(=O)O)c2)cc1)C(=O)c1ccc(Br)cc1 [Example 1, 4′-{[(4-Bromobenzoyl)-(2-methoxybenzyl)amino]methyl}-4-hydroxybiphenyl-3-carboxylic acid]
1500 | CCCCCN(Cc1ccc(-c2ccc(O)c(C(=O)O)c2)cc1)C(=O)c1ccc2c(c1)OCO2 [Example 15, 4′-{[(Benzo[1,3]dioxole-5-carbonyl)pentylamino]methyl}-4-hydroxybiphenyl-3-carboxylic acid]
1400 | COc1cccc(C(=O)N(Cc2ccc(-c3ccc(O)c(C(=O)O)c3)cc2)Cc2ccccc2OC)c1 [Example 4, 4-Hydroxy-4′-{[(3-methoxybenzoyl)-(2-methoxybenzyl)amino]-methyl}biphenyl-3-carboxylic acid]
1300 | O=C(O)c1cc(-c2ccc(CN(Cc3ccccc3)C(=O)c3ccco3)cc2)ccc1O [Example 22, 4′-{[Benzyl(furan-2-carbonyl)amino]methyl}-4-hydroxybiphenyl-3-carboxylic acid]
500 | O=C(O)c1cc(-c2ccc(CN(Cc3ccc(F)cc3)C(=O)c3ccc(Br)cc3)cc2)ccc1O [Example 23, 4′-{[(4-Bromobenzoyl)-(4-fluorobenzyl)amino]methyl}-4-hydroxybiphenyl-3-carboxylic acid]
1300 | COc1ccccc1CN(Cc1ccc(-c2ccc(O)c(C(=O)O)c2)cc1)C(=O)C1CCCCC1 [Example 6, 4′-{[Cyclohexanecarbonyl-(2-methoxybenzyl)amino]methyl}-4-hydroxybiphenyl-3-carboxylic acid]
600 | CCCCC(=O)N(Cc1ccc(OC)cc1)Cc1ccc(-c2ccc(O)c(C(=O)O)c2)cc1 [Example 24, 4-Hydroxy-4′-{[(4-methoxybenzyl)pentanoylamino]methyl}-biphenyl-3-carboxylic acid]
1450 | O=C(O)c1cc(-c2ccc(CN(Cc3ccc(F)cc3)C(=O)/C=C/c3ccccc3)cc2)ccc1O [Example 18, 4′-{[(4-Fluorobenzyl)-(3-phenylacryloyl)amino]methyl}-4-hydroxybiphenyl-3-carboxylic acid]
1280 | Cc1ccc(CN(Cc2ccc(-c3ccc(O)c(C(=O)O)c3)cc2)C(=O)c2ccc3c(c2)OCO3)cc1 [Example 19, 4′-{[(Benzo[1,3]dioxole-5-carbonyl)-(4-methylbenzyl)amino]methyl}-4-hydroxy-biphenyl-3-carboxylic acid]
600 | O=C(O)c1cc(-c2ccc(CN(Cc3ccccc3)C(=O)c3ccc(Br)cc3)cc2)ccc1O [Example 21, 4′-{[Benzyl-(4-bromobenzoyl)amino]methyl}-4-hydroxybiphenyl-3-carboxylic acid]
